Test results reported in ChEMBL document CHEMBL4390652, “Design, biological evaluation and X-ray crystallography of nanomolar multifunctional ligands targeting simultaneously acetylcholinesterase and glycogen synthase kinase-3” (Eur J Med Chem, 2019).

Experiments:
[1] = biological target: Cyclin-dependent kinase 4/cyclin D1 (Homo sapiens) (UniProt P11802+P24385); assay: Binding affinity to wild-type human full length CDK4/cyclinD1 (M1 to E303 residues) expressed in mammalian expression system assessed as residual binding level at 10 uM by Kinomescan method relative to control
[2] = biological target: Cyclin-dependent kinase 16 (Homo sapiens) (UniProt Q00536); assay: Binding affinity to wild-type human partial length PCTK1 (G160 to A474 residues) expressed in mammalian expression system assessed as residual binding level at 10 uM by Kinomescan method relative to control
[3] = tested on: Fibroblast growth factor receptor 3 (Homo sapiens), P22607 [G697C]; assay: Binding affinity to human partial length FGFR3 G697C mutant (R442 to S771 residues) expressed in bacterial expression system assessed as residual binding level at 10 uM by Kinomescan method relative to control
[4] = biological target: Dual specificity mitogen-activated protein kinase kinase 7 (Homo sapiens) (UniProt O14733); assay: Binding affinity to wild-type human full length MKK7 (M1 to R419 residues) expressed in mammalian expression system assessed as residual binding level at 10 uM by Kinomescan method relative to control
[5] = biological target: Fibroblast growth factor receptor 1 (Homo sapiens) (UniProt P11362); assay: Binding affinity to wild-type human partial length FGFR1 (P357 to V669 residues) expressed in bacterial expression system assessed as residual binding level at 10 uM by Kinomescan method relative to control
[6] = tested on: Receptor-type tyrosine-protein kinase FLT3 (Homo sapiens), P36888 [D835V]; assay: Binding affinity to human partial length FLT3 D835V mutant (V592 to Y969 residues) expressed in bacterial expression system assessed as residual binding level at 10 uM by Kinomescan method relative to control
[7] = tested on: ALK tyrosine kinase receptor (Homo sapiens), Q9UM73 [L1196M]; assay: Binding affinity to wild-type human partial length ALK L1196M mutant (I1088 to E1409 residues) expressed in mammalian expression system assessed as residual binding level at 10 uM by Kinomescan method relative to control
[8] = tested on: Proto-oncogene tyrosine-protein kinase receptor Ret (Homo sapiens), P07949 [M918T]; assay: Binding affinity to human partial length RET M918T mutant (E713 to D1014 residues) expressed in bacterial expression system assessed as residual binding level at 10 uM by Kinomescan method relative to control
[9] = biological target: Atypical kinase COQ8A, mitochondrial (Homo sapiens) (UniProt Q8NI60); assay: Binding affinity to wild-type human full length ADCK3 (M280 to Q647 residues) expressed in bacterial expression system assessed as residual binding level at 10 uM by Kinomescan method relative to control
[10] = biological target: Angiopoietin-1 receptor (Homo sapiens) (UniProt Q02763); assay: Binding affinity to wild-type human partial length TIE2 (N804 to T1112 residues) expressed in bacterial expression system assessed as residual binding level at 10 uM by Kinomescan method relative to control
[11] = tested on: Tyrosine-protein kinase ABL1 (Homo sapiens), P00519 [T315I]; assay: Binding affinity to human non-phosphorylated ABL1 T315I mutant (S229 to K512 residues) expressed in mammalian expression system assessed as residual binding level at 10 uM by Kinomescan method relative to control
[12] = biological target: Serine/threonine-protein kinase NIM1 (Homo sapiens) (UniProt Q8IY84); assay: Binding affinity to wild-type human partial length NIM1 (Q44 to N355 residues) expressed in mammalian expression system assessed as residual binding level at 10 uM by Kinomescan method relative to control
[13] = biological target: LIM domain kinase 2 (Homo sapiens) (UniProt P53671); assay: Binding affinity to wild-type human full length LIMK2 (M1 to P638 residues) expressed in bacterial expression system assessed as residual binding level at 10 uM by Kinomescan method relative to control
[14] = biological target: G protein-coupled receptor kinase 4 (Homo sapiens) (UniProt P32298); assay: Binding affinity to wild-type human full length GRK4 (M1 to C578 residues) expressed in bacterial expression system assessed as residual binding level at 10 uM by Kinomescan method relative to control
[15] = biological target: Serine/threonine-protein kinase 17A (Homo sapiens) (UniProt Q9UEE5); assay: Binding affinity to wild-type human partial length DRAK1 (R32 to E363 residues) expressed in bacterial expression system assessed as residual binding level at 10 uM by Kinomescan method relative to control
[16] = biological target: SRSF protein kinase 1 (Homo sapiens) (UniProt Q96SB4); assay: Binding affinity to wild-type human full length SRPK1 (M1 to S655 residues) expressed in bacterial expression system assessed as residual binding level at 10 uM by Kinomescan method relative to control
[17] = biological target: Dual specificity tyrosine-phosphorylation-regulated kinase 1A (Homo sapiens) (UniProt Q13627); assay: Binding affinity to wild-type human partial length DYRK1A (H129 to S509 residues) expressed in mammalian expression system assessed as residual binding level at 10 uM by Kinomescan method relative to control
[18] = biological target: Serine/threonine-protein kinase B-raf (Homo sapiens) (UniProt P15056); assay: Binding affinity to wild-type human partial length BRAF (S429 to E741 residues) expressed in mammalian expression system assessed as residual binding level at 10 uM by Kinomescan method relative to control
[19] = biological target: Protein kinase C epsilon type (Homo sapiens) (UniProt Q02156); assay: Binding affinity to wild-type human partial length PRKCE (A378 to P737 residues) expressed in mammalian expression system assessed as residual binding level at 10 uM by Kinomescan method relative to control
[20] = biological target: Cyclin-G-associated kinase (Homo sapiens) (UniProt O14976); assay: Binding affinity to wild-type human partial length GAK (G13 to Y338 residues) expressed in bacterial expression system assessed as residual binding level at 10 uM by Kinomescan method relative to control
[21] = biological target: Serine/threonine-protein kinase D3 (Homo sapiens) (UniProt O94806); assay: Binding affinity to wild-type human partial length PRKD3 (S543 to E863 residues) expressed in bacterial expression system assessed as residual binding level at 10 uM by Kinomescan method relative to control
[22] = biological target: Mitogen-activated protein kinase 13 (Homo sapiens) (UniProt O15264); assay: Binding affinity to wild-type human full length p38-delta (M1 to L365 residues) expressed in bacterial expression system assessed as residual binding level at 10 uM by Kinomescan method relative to control
[23] = biological target: MAP kinase-interacting serine/threonine-protein kinase 2 (Homo sapiens) (UniProt Q9HBH9); assay: Binding affinity to wild-type human partial length MKNK2 (G63 to S388 residues) expressed in mammalian expression system assessed as residual binding level at 10 uM by Kinomescan method relative to control
[24] = biological target: Fibroblast growth factor receptor 2 (Homo sapiens) (UniProt P21802); assay: Binding affinity to wild-type human partial length FGFR2 (D457 to E769 residues) expressed in bacterial expression system assessed as residual binding level at 10 uM by Kinomescan method relative to control
Fibroblast growth factor receptor 2 (Homo sapiens), sequence (P21802 22-821 limits assumed): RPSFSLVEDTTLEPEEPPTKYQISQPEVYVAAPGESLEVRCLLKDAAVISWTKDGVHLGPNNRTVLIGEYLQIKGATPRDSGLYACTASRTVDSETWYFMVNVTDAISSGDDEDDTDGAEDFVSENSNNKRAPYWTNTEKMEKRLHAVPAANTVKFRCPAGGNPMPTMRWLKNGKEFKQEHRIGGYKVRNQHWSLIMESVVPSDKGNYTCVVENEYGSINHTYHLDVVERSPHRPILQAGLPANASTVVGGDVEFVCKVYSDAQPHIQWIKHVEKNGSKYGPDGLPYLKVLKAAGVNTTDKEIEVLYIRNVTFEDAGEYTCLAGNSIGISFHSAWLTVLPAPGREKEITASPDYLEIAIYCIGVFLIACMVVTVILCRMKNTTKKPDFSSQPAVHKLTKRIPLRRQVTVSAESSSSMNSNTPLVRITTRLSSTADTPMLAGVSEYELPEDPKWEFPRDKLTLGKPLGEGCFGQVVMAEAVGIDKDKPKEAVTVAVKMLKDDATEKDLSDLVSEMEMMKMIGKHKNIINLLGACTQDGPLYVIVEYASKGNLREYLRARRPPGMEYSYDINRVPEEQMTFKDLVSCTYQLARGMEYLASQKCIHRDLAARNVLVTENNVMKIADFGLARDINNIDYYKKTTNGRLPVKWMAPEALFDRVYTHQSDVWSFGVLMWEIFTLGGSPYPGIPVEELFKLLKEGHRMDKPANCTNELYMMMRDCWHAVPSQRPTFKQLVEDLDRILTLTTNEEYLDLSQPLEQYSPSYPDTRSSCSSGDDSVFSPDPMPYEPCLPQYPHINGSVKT

Dual specificity mitogen-activated protein kinase kinase 7 (Homo sapiens), sequence (O14733 whole entry, the tested form may be a part): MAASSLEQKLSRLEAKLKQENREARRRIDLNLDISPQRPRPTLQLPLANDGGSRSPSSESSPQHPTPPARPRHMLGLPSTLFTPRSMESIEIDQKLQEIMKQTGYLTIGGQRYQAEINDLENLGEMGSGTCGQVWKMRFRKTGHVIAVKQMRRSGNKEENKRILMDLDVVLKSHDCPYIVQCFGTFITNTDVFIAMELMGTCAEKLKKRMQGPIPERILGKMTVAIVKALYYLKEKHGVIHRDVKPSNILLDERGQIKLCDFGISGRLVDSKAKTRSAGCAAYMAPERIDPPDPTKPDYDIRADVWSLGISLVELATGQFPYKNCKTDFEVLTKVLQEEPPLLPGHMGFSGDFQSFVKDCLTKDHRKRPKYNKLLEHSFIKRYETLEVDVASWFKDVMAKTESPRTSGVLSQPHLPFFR
Serine/threonine-protein kinase B-raf (Homo sapiens), sequence (P15056 whole entry, the tested form may be a part): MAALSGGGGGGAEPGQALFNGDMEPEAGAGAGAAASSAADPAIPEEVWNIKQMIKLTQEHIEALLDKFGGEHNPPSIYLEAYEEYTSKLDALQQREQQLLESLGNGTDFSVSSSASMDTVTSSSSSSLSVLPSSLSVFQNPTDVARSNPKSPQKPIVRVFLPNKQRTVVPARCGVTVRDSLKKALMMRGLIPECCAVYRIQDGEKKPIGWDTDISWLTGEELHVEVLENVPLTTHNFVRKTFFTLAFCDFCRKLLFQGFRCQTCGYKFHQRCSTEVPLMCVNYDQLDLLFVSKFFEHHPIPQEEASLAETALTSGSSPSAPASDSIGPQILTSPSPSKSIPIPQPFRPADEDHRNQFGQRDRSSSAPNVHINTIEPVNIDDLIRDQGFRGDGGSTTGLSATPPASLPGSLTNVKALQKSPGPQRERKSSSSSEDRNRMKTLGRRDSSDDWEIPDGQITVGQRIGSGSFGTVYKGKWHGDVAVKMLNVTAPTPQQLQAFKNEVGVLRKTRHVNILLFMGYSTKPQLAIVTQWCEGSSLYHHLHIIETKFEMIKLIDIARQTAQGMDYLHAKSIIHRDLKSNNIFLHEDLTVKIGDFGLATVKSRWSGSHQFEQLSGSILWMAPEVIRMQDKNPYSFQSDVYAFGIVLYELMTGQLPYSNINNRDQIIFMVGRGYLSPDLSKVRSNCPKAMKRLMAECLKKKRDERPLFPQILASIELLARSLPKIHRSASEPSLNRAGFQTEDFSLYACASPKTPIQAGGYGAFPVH
Serine/threonine-protein kinase 17A (Homo sapiens), sequence (Q9UEE5 whole entry, the tested form may be a part): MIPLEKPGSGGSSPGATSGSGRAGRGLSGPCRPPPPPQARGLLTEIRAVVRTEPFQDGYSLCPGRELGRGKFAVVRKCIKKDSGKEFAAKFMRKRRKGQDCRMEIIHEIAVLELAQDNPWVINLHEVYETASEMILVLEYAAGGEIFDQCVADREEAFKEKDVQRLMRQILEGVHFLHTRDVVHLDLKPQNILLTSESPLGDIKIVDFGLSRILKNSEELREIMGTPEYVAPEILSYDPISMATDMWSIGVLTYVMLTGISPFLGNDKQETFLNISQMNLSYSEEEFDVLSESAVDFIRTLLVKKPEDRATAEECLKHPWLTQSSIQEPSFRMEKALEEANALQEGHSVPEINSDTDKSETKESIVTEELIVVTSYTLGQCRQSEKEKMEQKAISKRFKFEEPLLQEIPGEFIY
SRSF protein kinase 1 (Homo sapiens), sequence (Q96SB4 whole entry, the tested form may be a part): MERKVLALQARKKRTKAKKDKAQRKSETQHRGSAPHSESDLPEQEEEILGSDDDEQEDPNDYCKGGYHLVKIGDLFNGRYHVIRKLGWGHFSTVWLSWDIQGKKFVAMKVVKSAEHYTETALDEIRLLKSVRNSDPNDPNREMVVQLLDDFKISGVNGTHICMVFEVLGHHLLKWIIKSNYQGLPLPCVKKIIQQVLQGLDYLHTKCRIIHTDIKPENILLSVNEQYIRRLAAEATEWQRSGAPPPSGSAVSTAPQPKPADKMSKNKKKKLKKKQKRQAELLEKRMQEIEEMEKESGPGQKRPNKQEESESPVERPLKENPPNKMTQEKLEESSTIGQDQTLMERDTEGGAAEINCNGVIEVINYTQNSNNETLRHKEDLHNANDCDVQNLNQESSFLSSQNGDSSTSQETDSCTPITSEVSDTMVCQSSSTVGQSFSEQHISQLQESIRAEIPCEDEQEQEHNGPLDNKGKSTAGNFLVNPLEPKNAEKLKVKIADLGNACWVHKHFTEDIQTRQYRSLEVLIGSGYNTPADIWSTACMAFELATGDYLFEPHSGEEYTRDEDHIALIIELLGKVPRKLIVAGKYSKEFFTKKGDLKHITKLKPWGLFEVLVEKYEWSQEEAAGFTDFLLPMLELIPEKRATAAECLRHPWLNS
Cyclin-dependent kinase 16 (Homo sapiens), sequence (Q00536 whole entry, the tested form may be a part): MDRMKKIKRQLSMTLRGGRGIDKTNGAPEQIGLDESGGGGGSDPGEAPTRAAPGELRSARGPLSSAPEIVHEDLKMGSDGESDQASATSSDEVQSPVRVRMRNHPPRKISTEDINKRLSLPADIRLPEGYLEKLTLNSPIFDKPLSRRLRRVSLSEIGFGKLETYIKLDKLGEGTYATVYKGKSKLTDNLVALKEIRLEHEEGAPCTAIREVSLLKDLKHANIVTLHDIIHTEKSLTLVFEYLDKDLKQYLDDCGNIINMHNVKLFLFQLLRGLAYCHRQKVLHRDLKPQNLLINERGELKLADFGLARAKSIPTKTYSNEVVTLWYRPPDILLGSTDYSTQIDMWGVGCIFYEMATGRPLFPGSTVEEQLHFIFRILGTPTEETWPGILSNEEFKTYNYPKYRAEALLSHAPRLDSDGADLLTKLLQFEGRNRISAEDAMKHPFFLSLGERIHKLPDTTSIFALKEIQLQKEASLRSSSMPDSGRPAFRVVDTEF
MAP kinase-interacting serine/threonine-protein kinase 2 (Homo sapiens), sequence (Q9HBH9 whole entry, looked up, the tested form may be a part): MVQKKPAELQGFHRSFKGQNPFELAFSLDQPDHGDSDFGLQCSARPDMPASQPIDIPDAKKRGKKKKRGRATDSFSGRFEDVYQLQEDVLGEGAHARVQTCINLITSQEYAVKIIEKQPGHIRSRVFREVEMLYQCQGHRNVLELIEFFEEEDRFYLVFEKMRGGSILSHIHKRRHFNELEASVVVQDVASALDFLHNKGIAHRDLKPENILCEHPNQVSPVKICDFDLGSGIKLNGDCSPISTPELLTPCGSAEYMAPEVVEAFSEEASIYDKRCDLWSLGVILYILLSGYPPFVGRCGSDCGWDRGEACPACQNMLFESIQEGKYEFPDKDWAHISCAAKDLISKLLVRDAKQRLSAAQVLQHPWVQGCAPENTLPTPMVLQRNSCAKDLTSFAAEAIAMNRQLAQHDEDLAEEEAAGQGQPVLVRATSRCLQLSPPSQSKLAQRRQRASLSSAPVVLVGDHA
Serine/threonine-protein kinase NIM1 (Homo sapiens), sequence (Q8IY84 whole entry, the tested form may be a part): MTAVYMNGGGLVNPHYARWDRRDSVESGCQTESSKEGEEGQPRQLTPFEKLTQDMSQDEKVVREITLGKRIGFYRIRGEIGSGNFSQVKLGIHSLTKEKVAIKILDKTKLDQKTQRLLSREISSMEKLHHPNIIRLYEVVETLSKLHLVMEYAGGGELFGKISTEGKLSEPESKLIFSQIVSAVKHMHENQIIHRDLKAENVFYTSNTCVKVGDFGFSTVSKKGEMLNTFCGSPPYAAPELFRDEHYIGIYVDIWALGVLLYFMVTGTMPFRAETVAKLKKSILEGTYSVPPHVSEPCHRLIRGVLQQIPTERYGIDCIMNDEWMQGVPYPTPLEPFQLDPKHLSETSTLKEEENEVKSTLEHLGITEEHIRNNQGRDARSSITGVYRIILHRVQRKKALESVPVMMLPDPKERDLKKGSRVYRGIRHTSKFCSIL
Mitogen-activated protein kinase 13 (Homo sapiens), sequence (O15264 whole entry, the tested form may be a part): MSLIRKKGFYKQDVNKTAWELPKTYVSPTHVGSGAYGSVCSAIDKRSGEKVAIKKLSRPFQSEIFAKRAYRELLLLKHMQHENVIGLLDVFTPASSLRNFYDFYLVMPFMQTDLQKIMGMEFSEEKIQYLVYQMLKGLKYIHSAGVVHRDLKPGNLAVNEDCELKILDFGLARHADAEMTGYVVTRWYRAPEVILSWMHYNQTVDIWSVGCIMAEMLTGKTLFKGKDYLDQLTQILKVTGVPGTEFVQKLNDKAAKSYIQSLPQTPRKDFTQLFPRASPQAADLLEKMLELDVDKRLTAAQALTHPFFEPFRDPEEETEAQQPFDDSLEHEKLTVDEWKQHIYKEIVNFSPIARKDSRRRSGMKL

## O=C(Nc1cc(-c2cn(CCNc3c4c(nc5ccccc35)CCCC4)nn2)ccn1)Nc1cccc2c1C1CCCCN1C2=O (racemic)
[1]
  Activity: 1.1%
[2]
  Activity: 4.3%
[3]
  Activity: 40%
[4]
  Activity: 100%
[5]
  Activity: 27%
[6]
  Activity: 0.04%
[7]
  Activity: 100%
[8]
  Activity: 42%
[9]
  Activity: 40%
[10]
  Activity: 77%
[11]
  Activity: 18%
[12]
  Activity: 83%
[13]
  Activity: 60%
[14]
  Activity: 7%
[15]
  Activity: 0.3%
[16]
  Activity: 8.2%
[17]
  Activity: 2.4%
[18]
  Activity: 51%
[19]
  Activity: 100%
[20]
  Activity: 19%
[21]
  Activity: 12%
[22]
  Activity: 73%
[23]
  Activity: 72%
[24]
  Activity: 21%
